Results on one compound are retold here after ChEMBL document CHEMBL4387717, “Structure guided drug design to develop kallikrein 5 inhibitors to treat Netherton syndrome” (Bioorg Med Chem Lett, 2019).

≈ marks a conversion by molar mass, not a printed value.

Data set [1] is described as follows: Half life in pH 6 buffer at 0.05 mg/ml under H2O2-induced oxidative condition over 24 hrs. It counts as physicochemical. The following applies: buffer with H2O2, pH 6.
Data set [2] is described as follows: Solubility of the compound in pH 4 Britton-Robinson buffer at 24 hrs. It counts as physicochemical. The following applies: Britton-Robinson buffer, pH 4.
A further data set deals with Plasma kallikrein (Homo sapiens, UniProt P03952). In words: Inhibition of recombinant C-terminal 6-His tagged human KLKB1 (Gly20 to Ala638 residues) expressed in mouse NS0 cells using P-F-R-AMC as substrate after 40 mins by fluorescence intensity assay.
The species entered for data set [3] is Homo sapiens. In words: Selectivity index, ratio of compound effect for inhibition of recombinant C-terminal 10-His tagged human thrombin (Met1 to Glu622 residues) expressed in mouse NS0 cells to compound effect for inhibition of recombinant 6His-Q-FLAG tagged human KLK5 expressed in baculovirus infected insect Sf9 cells.
A short description of data set [4]: Half life in pH 4 to 8 buffer at 0.05 mg/ml over 24 hrs. Format: physicochemical.
A further data set deals with Kallikrein-7 (Homo sapiens, UniProt P49862). In words: Inhibition of recombinant C-terminal 10His-tagged human KLK7 (Glu23 to His252 residues) expressed in mouse NS0 cells using 5-FAM-E-A-L-Y-L-V-S-G-C as substrate after 40 mins by fluorescence intensity assay.
The target in data set [5] is Urokinase-type plasminogen activator (Homo sapiens, UniProt P00749). Put plainly: Inhibition of recombinant C-terminal 10His-tagged human urokinase (Met1 to Leu431 residues) expressed in mouse NS0 cells using Z-GGR-AMC as substrate after 40 mins by fluorescence intensity assay.
For data set [6], the species on record is Homo sapiens. Put plainly: Selectivity index, ratio of compound effect for inhibition of recombinant C-terminal 10-His tagged human urokinase (Met1 to Leu431 residues) expressed in mouse NS0 cells to compound effect for inhibition of recombinant 6His-Q-FLAG tagged human KLK5 expressed in baculovirus infected insect Sf9 cells.
In the next data set the test system is Keratinocyte. In words: Induction of irritation in human epidermal keratinocytes assessed as effect on IL1alpha levels over 24 hrs. It counts as cell-based.
The target in a further data set is T1, Neutrophil elastase (Homo sapiens, UniProt P08246).
T1 sequence (P08246 whole entry): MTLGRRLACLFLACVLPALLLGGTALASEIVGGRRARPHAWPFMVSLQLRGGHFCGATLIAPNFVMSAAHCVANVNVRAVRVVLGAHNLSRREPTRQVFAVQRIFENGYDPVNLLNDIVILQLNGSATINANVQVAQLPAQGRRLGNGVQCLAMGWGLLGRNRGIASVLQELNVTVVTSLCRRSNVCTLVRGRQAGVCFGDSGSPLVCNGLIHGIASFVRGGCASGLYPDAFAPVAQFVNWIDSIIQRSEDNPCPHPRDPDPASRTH
Put plainly: Inhibition of human neutrophil elastase using MeOSuc-AAPV-AMC as substrate after 40 mins by fluorescence intensity assay.

Another data set addresses Coagulation factor X (Homo sapiens, UniProt P00742). In words: Inhibition of recombinant C-terminal 10His-tagged human coagulation factor 10a (Leu24 to Lys488 residues) expressed in baculovirus infected Sf9 insect cells using Mca-RPKPVE-Nval-WRK(Dnp)-NH2 as substrate after 40 mins by fluorescence intensity assay.
Data set [7] in a line: Solubility of the compound in water at 24 hrs. It counts as physicochemical.
A short description of data set [8]: Solubility of the compound in pH 6 Britton-Robinson buffer at 24 hrs. The following applies: Britton-Robinson buffer, pH 6. It counts as physicochemical.
Data set [9] addresses T2, Suppressor of tumorigenicity 14 protein (Homo sapiens, UniProt Q9Y5Y6).
T2 sequence (Q9Y5Y6 whole entry): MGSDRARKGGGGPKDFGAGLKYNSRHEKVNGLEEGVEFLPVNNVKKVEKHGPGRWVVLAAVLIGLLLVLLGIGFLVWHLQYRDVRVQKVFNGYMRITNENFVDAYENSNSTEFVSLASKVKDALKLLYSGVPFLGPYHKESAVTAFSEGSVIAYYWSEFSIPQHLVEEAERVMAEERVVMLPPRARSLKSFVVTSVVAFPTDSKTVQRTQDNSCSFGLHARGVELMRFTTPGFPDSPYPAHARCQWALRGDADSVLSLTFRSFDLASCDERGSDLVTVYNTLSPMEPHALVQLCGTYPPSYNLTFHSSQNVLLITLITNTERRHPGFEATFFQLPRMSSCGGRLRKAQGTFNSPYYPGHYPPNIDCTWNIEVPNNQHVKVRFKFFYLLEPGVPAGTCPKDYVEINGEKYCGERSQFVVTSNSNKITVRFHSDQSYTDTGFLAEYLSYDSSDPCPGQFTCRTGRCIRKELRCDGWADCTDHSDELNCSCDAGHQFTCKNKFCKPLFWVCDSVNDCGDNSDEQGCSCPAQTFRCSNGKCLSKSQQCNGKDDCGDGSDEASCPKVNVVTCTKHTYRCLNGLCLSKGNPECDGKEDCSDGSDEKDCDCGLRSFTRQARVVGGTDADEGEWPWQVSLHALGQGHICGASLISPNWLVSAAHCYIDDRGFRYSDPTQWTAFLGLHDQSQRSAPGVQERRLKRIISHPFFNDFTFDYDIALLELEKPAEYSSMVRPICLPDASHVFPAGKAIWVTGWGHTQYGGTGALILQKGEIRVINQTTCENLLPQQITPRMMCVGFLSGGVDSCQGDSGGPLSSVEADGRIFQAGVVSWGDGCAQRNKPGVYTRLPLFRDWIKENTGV
In words: Inhibition of recombinant human N-terminal met-His6-tagged matriptase catalytic domain (Gly596 to Val855 residues) expressed in Escherichia coli using Boc-QAR-AMC as substrate after 40 mins by fluorescence intensity assay.

The species named for data set [10] is Homo sapiens. In words: Selectivity index, ratio of compound effect for inhibition of recombinant C-terminal 10-His tagged human KLK8 (Gln29 to Gly260 residues) expressed in mouse NS0 cells to compound effect for inhibition of recombinant 6His-Q-FLAG tagged human KLK5 expressed in baculovirus infected insect Sf9 cells.
The species named for data set [11] is Homo sapiens. Put plainly: Selectivity index, ratio of compound effect for inhibition of recombinant C-terminal 10-His tagged human coagulation factor 10a (Leu24 to Lys488 residues) expressed in baculovirus infected insect Sf9 cells to compound effect for inhibition of recombinant 6His-Q-FLAG tagged human KLK5 expressed in baculovirus infected insect Sf9 cells.

A further data set has as its target Prothrombin (Homo sapiens, UniProt P00734). In words: Inhibition of recombinant C-terminal 10His-tagged human thrombin (Met1 to Glu622 residues) expressed in mouse NS0 cells using BOC-VPR-AMC as substrate after 40 mins by fluorescence intensity assay.
The species entered for data set [12] is Homo sapiens. In words: Selectivity index, ratio of compound effect for inhibition of recombinant C-terminal 10-His tagged human KLK7 (Glu23 to His252 residues) expressed in mouse NS0 cells to compound effect for inhibition of recombinant 6His-Q-FLAG tagged human KLK5 expressed in baculovirus infected insect Sf9 cells.
Data set [13] in a line: Solubility of the compound in pH 8 Britton-Robinson buffer at 24 hrs. It counts as physicochemical.

With `N=C(N)c1ccc(NCc2nc(-c3ccccc3)c[nH]2)cc1OCc1cccnc1`, the half-life at 0.05 mg/ml in [1] is 27.8 h; in [4], greater than 1000 h. Also, the solubility at 24 h was determined as 1000 µg/mL (≈ 2510 µM) in [2], 1000 µg/mL (≈ 2510 µM) in [7], 290 µg/mL (≈ 728 µM) in data set [8] and 180 µg/mL (≈ 452 µM) in [13]. Besides, the 50% inhibitory concentration (IC50) was 6.31 µM on Plasma kallikrein; greater than 100 µM at Kallikrein-7; greater than 100 µM in data set [5]; greater than 100 µM at Neutrophil elastase; greater than 100 µM at Coagulation factor X; 25.1 µM in data set [9]. The IC50 at Prothrombin was 63.1 µM. In addition, the Selectivity Index in the data set filed under Homo sapiens [3] was greater than 100; in the data set filed under Homo sapiens [6], greater than 100; in the data set filed under Homo sapiens [10] it was 10; in the data set listed under Homo sapiens [11], greater than 100; in the data set listed under Homo sapiens [12], greater than 100. In addition, in the data set on Keratinocyte, the Activity entry is “Non-Toxic”.

What is called half-life is how long it takes for the measured level to halve. Read a high half-life as slow decline. The term solubility denotes the dissolved amount per volume that the medium holds. One may read the IC50 as the midpoint of a concentration-inhibition curve.
